Test results taken from PubChem BioAssay (NCI).
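Test compounds were applied to cells in 96-well plates for 48 hours at 5 doses. TGI is the concentration that stops growth completely.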

How the values were obtained:
Test in all cases: NCI anticancer screen, dose series, 48 h
ACHN renal = tested on: ACHN renal
CAKI-1 renal = tested on: CAKI-1 renal
DU-145 prostate = tested on: DU-145 prostate
HCC-2998 colon = tested on: HCC-2998 colon
HOP-92 NSCLC = tested on: HOP-92 NSCLC
LOX IMVI melanoma = tested on: LOX IMVI melanoma
MDA-MB-231 breast = tested on: MDA-MB-231 breast
MOLT-4 leukemia = tested on: MOLT-4 leukemia
NCI-H460 lung = tested on: NCI-H460 lung
NCI/ADR-RES ovarian = tested on: NCI/ADR-RES ovarian
OVCAR-3 ovarian = tested on: OVCAR-3 ovarian
SF-268 CNS = tested on: SF-268 CNS
SK-MEL-28 melanoma = tested on: SK-MEL-28 melanoma
SK-MEL-5 melanoma = tested on: SK-MEL-5 melanoma
SK-OV-3 ovarian = tested on: SK-OV-3 ovarian
SNB-19 CNS = tested on: SNB-19 CNS
TK-10 renal = tested on: TK-10 renal
U251 CNS = tested on: U251 CNS
UACC-62 melanoma = tested on: UACC-62 melanoma
SNB-78 CNS = tested on: SNB-78 CNS

SMILES | TGI (ACHN renal) [µM] | TGI (CAKI-1 renal) [µM] | TGI (DU-145 prostate) [µM] | TGI (HCC-2998 colon) [µM] | TGI (HOP-92 NSCLC) [µM] | TGI (LOX IMVI melanoma) [µM] | TGI (MDA-MB-231 breast) [µM] | TGI (MOLT-4 leukemia) [µM] | TGI (NCI-H460 lung) [µM] | TGI (NCI/ADR-RES ovarian) [µM] | TGI (OVCAR-3 ovarian) [µM] | TGI (SF-268 CNS) [µM] | TGI (SK-MEL-28 melanoma) [µM] | TGI (SK-MEL-5 melanoma) [µM] | TGI (SK-OV-3 ovarian) [µM] | TGI (SNB-19 CNS) [µM] | TGI (TK-10 renal) [µM] | TGI (U251 CNS) [µM] | TGI (UACC-62 melanoma) [µM] | TGI (SNB-78 CNS) [µM]
CC1CN=C(Nc2ccccc2)S1 (stereo unspecified) | > 100 | > 100 | > 100 | > 100 | > 100 | > 100 | > 100 | > 100 | > 100 | > 100 | > 100 | > 100 | > 100 | > 100 | > 100 | > 100 | > 100 | > 100 | > 100 | –
CC1C/C(=C\c2ccc(OC(=O)C(C)(C)C)cc2)C(=O)/C(=C/c2ccc(OC(=O)C(C)(C)C)cc2)C1 (stereo unspecified) | > 100 | > 100 | > 100 | > 100 | > 100 | > 100 | > 100 | 37.7 | > 100 | > 100 | > 100 | > 100 | > 100 | > 100 | > 100 | > 100 | > 100 | > 100 | > 100 | –
O=C1c2ccccc2CN1c1ccc(OCCN2CCCCC2)cc1 | > 10 | > 10 | > 10 | > 10 | > 10 | > 10 | > 10 | > 10 | > 10 | > 10 | > 10 | > 10 | > 10 | > 10 | > 10 | > 10 | > 10 | > 10 | > 10 | –
COc1cccc2c1CCc1cc3c(N)nc(N)nc3nc1-2 | 36.5 | 45.7 | 23.8 | 5.78 | 32.6 | 3.34 | 15.9 | > 100 | 25 | 46.7 | 16 | 42.4 | 11 | 10.2 | 40.3 | 26.7 | 47.3 | > 38.3 | 16.7 | –
Cn1c(=O)n2n(c1=O)C(S(=O)(=O)c1ccccc1)C2 (stereo unspecified) | > 100 | > 100 | > 100 | > 100 | > 100 | > 100 | > 100 | > 100 | > 100 | > 100 | > 100 | > 100 | > 100 | > 100 | > 100 | > 100 | > 100 | > 100 | > 100 | –
O=C1CCCCCCCCCCC1CCCCCBr (stereo unspecified) | 84 | 95.1 | > 100 | 38.6 | 67.6 | 37.8 | 45.1 | 33.6 | > 100 | 64.3 | 44.7 | > 100 | 84.4 | 31.2 | > 100 | 64.7 | > 100 | 43.3 | > 100 | –
COc1ccccc1C(O)(c1ccccc1)C(O)(c1ccccc1)c1ccccc1OC (stereo unspecified) | > 100 | – | – | > 100 | > 100 | > 100 | – | > 100 | > 100 | – | > 100 | > 100 | > 100 | > 100 | > 31.6 | > 100 | > 100 | > 100 | > 100 | > 100
Cc1ccccc1NC(=O)c1c(C)oc2c1C(=O)c1ccccc1C2=O | > 100 | > 100 | – | > 100 | 65.2 | 41.3 | – | 47.4 | > 100 | – | > 72.1 | > 100 | > 100 | 27.1 | > 100 | > 100 | > 100 | > 20.2 | 49.8 | 5.98
CN(C)CCCn1c(Cc2ccc(Cl)cc2)nc2cc(C(F)(F)F)ccc21 | 26 | 27.3 | 27.2 | 3.85 | 22.9 | 29.7 | 26.5 | 34.5 | 26 | 33.6 | 27.6 | 29.1 | 33.5 | 32.5 | 28.2 | 30.8 | 29.6 | 28.6 | 31.2 | –
O=C1Cc2c([nH]c3ccccc23)-c2ccccc2N1 | > 100 | > 100 | – | 41.2 | > 100 | 37.7 | – | 94.3 | > 100 | – | 68.2 | > 100 | > 100 | > 100 | > 100 | > 100 | > 100 | > 100 | – | > 100
Cc1nc(C(N)=S)sc1C(=O)CC(=O)C(=O)Nc1ccccc1[N+](=O)[O-] | > 100 | > 100 | – | > 100 | > 100 | > 100 | – | > 100 | > 100 | – | > 100 | > 100 | > 100 | > 100 | > 100 | > 100 | > 100 | > 100 | > 100 | > 100
Oc1cc2c3c(c1)CCCN3CCC2 | > 10 | > 10 | > 10 | > 10 | > 10 | > 10 | > 10 | > 10 | > 10 | > 10 | > 10 | > 10 | > 10 | > 10 | > 10 | > 10 | > 10 | > 10 | > 10 | –
COC(=O)C1=CSC2(S1)C(C(=O)OC)=CSc1c2ssc1=O (stereo unspecified) | 3.61 | 10.7 | 3.3 | 8.82 | 4.27 | 3.35 | 4.13 | > 19.8 | 24.5 | 8.35 | 3.55 | 8.89 | 5.23 | 6.62 | 29.7 | 16.1 | 6.13 | 3.02 | 4.16 | –
COC(=O)c1ccccc1C1CN=NC12Cc1ccccc1C2=O (stereo unspecified) | > 100 | > 100 | > 100 | > 100 | > 100 | > 100 | > 100 | > 100 | > 100 | > 100 | > 100 | > 100 | > 100 | > 100 | > 100 | > 100 | > 100 | > 100 | > 100 | –
C=C1C(=O)O[C@@H]2[C@@H]3O[C@@H](C[C@@H]13)[C@](C)(O)CC/C=C(\C)CCC[C@@H]2C | 21.2 | 28.6 | 29.6 | 32.7 | 29.3 | 19.2 | 37.5 | > 100 | 30.8 | 38.5 | 25.8 | 43.9 | 33.3 | 30.6 | 34 | 29.8 | 27.7 | 22.8 | 25.4 | –
O=C(N/N=C/c1c(-c2ccccc2)no[n+]1[O-])N1CCOCC1 | > 100 | > 100 | > 100 | > 100 | > 100 | > 100 | > 100 | > 100 | > 100 | > 100 | > 100 | > 100 | > 100 | > 100 | > 100 | > 100 | > 100 | > 100 | > 100 | –
CCOC(=O)CCC(NC(=O)c1ccc(Oc2nc3ccccc3nc2-c2ccccc2)cc1)C(=O)OCC (stereo unspecified) | > 66.9 | > 66.4 | > 100 | > 100 | 13.4 | > 100 | 65.9 | > 100 | > 100 | 27.7 | > 64.8 | 28.2 | > 100 | > 100 | > 67.6 | > 77 | > 56.8 | > 94 | > 100 | –
COC(=O)c1ccc(NC(=O)O/N=C(\Cl)C(C)C)cc1 | 3.16 | 3.08 | 35.1 | 28.1 | 3.57 | 4.02 | 15.6 | 6 | 41.2 | 16.7 | 4.17 | > 78.1 | 10.1 | 16.1 | 31.7 | 31.8 | 10.3 | 30.9 | 27 | –
Cc1occc1C(=S)Nc1ccc(Cl)c(C(=O)OC(C(C)C)C(C)C)c1 | 24.9 | 35.4 | 32 | 21.9 | 22.6 | 26.3 | 27.2 | 23.1 | 31.6 | 26.3 | 28.3 | 45.1 | 29.8 | 32 | 53.2 | 58.4 | 32.4 | 34.1 | 25.7 | –
CCn1c(SCC(=O)N/N=C/c2ccccc2)nc2ccccc2c1=O | > 100 | 22.4 | > 100 | > 100 | > 79 | > 100 | 80.8 | > 100 | 9.63 | > 100 | > 100 | > 70.2 | > 100 | > 100 | 27.1 | 71.3 | > 91 | > 70.9 | 52.1 | –
CCCCCCc1ccc(C(=O)NO)cc1 | 88.5 | 84.3 | 68.4 | > 100 | > 100 | 76.9 | > 100 | 50 | 72.3 | 51.9 | > 100 | > 100 | > 100 | > 100 | > 100 | > 100 | > 100 | > 100 | 66.6 | –
O=C1[C@H]2ON(c3ccccc3)C(c3ccccc3)[C@H]2C(=O)N1c1ccc(Cc2ccc(N3C(=O)[C@@H]4ON(c5ccccc5)C(c5ccccc5)[C@@H]4C3=O)cc2)cc1 (stereo partly specified) | > 100 | > 100 | – | > 100 | > 100 | > 100 | – | > 100 | > 100 | – | > 100 | > 100 | > 100 | > 100 | > 100 | – | – | > 100 | > 100 | > 100
CSC1=Nc2ccccc2-c2nc3ccccc3cc2C1 | > 100 | > 100 | > 100 | > 100 | > 100 | > 100 | > 100 | > 100 | > 100 | > 100 | > 100 | > 100 | > 100 | > 100 | > 100 | > 100 | > 100 | > 100 | > 100 | –
CN(C)CC1CN=C(N)O1 (stereo unspecified) | > 100 | > 100 | > 100 | > 100 | > 100 | > 100 | > 100 | > 100 | > 100 | > 100 | > 100 | > 100 | > 100 | > 100 | > 100 | > 100 | > 100 | > 100 | > 100 | –
CCC(C(=O)C(=O)C(CC)P1(=O)OC(C)(C)CN1C(C)(C)C)P1(=O)OC(C)(C)CN1C(C)(C)C (stereo unspecified) | > 100 | > 100 | > 100 | > 100 | > 100 | > 100 | > 100 | 82.3 | > 100 | > 100 | > 100 | > 100 | > 100 | > 100 | > 100 | > 100 | > 100 | > 100 | > 100 | –
